Laboratory results taken from ChEMBL document CHEMBL5465560, “Selectivity Literature for EUbOPEN Chemogenomic Library” (2024).
Blank lines part the entries; values can stand above or below the compound they belong to.

Assays:
[1] = biological target: Dual specificity tyrosine-phosphorylation-regulated kinase 1B (Homo sapiens, UniProt Q9Y463); conditions: at 10 µM
[2] = biological target: T1, Serine/threonine-protein kinase Sgk3 (Homo sapiens) (UniProt Q96BR1); assay: Selectivity interaction (KinomeScan (DiscoverX)) EUB0001079a SGK3; conditions: at 1 µM
T1 sequence (whole entry): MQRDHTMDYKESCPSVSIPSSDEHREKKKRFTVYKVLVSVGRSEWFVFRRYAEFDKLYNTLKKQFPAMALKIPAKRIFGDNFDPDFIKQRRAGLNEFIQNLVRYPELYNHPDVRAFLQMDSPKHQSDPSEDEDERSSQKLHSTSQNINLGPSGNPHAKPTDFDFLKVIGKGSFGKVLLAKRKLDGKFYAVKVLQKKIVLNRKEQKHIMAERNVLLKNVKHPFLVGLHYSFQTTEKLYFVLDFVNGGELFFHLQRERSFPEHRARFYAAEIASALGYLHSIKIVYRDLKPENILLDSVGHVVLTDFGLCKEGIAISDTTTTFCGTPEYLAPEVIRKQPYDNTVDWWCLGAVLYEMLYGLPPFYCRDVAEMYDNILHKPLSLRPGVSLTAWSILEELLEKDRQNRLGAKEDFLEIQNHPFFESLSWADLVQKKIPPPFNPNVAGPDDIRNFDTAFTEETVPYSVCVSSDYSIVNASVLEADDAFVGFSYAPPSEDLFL

[3] = biological target: Calcium/calmodulin-dependent protein kinase type II subunit beta (Homo sapiens) (UniProt Q13554); assay: Selectivity interaction (KinomeScan (DiscoverX)) EUB0001619a CAMK2B; conditions: at 1 µM
[4] = biological target: T2, Serine/threonine-protein kinase Nek2 (Homo sapiens) (UniProt P51955); assay: Selectivity interaction (KinomeScan (DiscoverX)) EUB0000045b NEK2
T2 sequence (whole entry): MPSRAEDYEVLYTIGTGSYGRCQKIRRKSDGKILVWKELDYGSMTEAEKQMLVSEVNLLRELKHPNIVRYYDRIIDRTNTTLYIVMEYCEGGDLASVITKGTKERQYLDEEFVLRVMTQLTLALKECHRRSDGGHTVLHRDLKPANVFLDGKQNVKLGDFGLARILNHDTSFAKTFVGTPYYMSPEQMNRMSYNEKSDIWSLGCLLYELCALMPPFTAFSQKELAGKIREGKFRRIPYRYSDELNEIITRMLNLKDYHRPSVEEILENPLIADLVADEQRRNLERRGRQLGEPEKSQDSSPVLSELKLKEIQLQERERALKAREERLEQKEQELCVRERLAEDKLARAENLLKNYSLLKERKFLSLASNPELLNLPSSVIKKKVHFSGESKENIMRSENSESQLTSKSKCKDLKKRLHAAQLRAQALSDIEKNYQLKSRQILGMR

[5] = biological target: T3, Serine/threonine-protein kinase tousled-like 1 (Homo sapiens) (UniProt Q9UKI8); conditions: at 10 µM
T3 sequence (whole entry): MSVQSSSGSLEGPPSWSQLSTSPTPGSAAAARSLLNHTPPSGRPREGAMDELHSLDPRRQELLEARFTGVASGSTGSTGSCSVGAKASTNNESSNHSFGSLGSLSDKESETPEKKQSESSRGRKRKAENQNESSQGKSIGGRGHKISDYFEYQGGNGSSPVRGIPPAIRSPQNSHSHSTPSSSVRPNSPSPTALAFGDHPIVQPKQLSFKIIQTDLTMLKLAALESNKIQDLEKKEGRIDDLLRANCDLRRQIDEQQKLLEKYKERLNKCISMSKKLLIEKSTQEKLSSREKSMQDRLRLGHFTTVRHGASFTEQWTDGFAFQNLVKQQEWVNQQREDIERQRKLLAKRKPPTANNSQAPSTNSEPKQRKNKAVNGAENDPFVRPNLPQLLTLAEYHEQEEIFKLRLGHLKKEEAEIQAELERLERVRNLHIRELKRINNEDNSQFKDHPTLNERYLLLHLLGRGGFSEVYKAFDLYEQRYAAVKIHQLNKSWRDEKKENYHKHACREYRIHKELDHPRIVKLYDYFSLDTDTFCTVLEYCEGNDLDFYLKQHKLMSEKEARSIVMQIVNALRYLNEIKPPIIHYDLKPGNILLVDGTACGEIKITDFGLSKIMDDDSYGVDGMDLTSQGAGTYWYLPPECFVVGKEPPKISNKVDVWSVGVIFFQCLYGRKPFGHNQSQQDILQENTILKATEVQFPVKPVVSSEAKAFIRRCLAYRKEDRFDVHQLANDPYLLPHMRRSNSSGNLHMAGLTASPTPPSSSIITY

[6] = biological target: Serine/threonine-protein kinase PLK1 (Homo sapiens, UniProt P53350); assay: Selectivity interaction (ActivX KiNativ screen (kinase selectivity in THP-1 cell lysates)) EUB0000639a PLK1; assay type: subcellular; conditions: lysate, at 0.01 µM
[7] = biological target: T4, Aurora kinase A (Homo sapiens) (UniProt O14965); assay: Selectivity interaction (Kinase panel (Carna Biosciences)) EUB0001542aTs STK6; conditions: at 1 µM
T4 sequence (whole entry): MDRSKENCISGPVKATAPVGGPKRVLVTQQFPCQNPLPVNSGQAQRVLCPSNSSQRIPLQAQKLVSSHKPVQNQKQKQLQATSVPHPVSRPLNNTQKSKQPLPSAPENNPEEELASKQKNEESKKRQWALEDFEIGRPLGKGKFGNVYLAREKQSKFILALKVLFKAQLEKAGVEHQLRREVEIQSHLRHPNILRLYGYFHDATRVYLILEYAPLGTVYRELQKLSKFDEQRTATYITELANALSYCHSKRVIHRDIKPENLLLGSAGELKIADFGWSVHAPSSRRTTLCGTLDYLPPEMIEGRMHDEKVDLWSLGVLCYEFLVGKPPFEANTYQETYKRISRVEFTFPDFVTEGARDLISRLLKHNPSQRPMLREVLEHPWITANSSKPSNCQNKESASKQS

Sequence of Calcium/calmodulin-dependent protein kinase type II subunit beta (Homo sapiens) (Q13554 whole entry): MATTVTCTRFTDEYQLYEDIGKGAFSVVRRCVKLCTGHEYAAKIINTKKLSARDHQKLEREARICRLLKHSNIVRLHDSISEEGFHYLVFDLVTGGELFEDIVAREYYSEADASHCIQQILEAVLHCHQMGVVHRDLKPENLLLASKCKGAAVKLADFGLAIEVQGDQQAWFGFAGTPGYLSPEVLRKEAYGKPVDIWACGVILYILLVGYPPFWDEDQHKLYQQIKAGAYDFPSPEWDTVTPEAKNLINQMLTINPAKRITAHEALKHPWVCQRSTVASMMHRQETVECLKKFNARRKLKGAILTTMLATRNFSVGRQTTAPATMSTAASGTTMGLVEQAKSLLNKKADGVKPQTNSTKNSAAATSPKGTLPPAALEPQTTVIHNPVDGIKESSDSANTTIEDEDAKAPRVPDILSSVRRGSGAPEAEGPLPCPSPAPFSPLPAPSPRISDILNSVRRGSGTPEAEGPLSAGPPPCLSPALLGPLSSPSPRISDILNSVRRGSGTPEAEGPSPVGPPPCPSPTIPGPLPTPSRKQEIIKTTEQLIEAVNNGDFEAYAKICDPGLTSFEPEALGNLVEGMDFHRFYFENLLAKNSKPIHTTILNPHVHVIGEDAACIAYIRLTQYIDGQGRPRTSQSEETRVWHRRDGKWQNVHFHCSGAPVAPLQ
Sequence of Serine/threonine-protein kinase PLK1 (P53350 whole entry): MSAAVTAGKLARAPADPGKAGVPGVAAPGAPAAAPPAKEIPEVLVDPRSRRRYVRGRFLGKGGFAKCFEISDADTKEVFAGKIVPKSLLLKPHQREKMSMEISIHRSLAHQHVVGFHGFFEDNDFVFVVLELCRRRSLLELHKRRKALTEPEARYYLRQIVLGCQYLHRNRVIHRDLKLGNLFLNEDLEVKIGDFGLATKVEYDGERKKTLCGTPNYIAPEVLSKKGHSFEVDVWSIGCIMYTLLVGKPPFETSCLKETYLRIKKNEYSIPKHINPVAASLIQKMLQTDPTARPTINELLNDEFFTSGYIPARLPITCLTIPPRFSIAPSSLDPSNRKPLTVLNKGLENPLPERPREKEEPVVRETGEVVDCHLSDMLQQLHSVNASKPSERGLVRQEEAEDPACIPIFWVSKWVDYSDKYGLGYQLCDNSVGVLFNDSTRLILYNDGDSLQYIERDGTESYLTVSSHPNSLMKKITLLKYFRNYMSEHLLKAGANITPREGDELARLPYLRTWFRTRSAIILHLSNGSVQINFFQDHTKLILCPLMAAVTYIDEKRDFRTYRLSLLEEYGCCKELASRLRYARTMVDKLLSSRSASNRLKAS
Sequence of Dual specificity tyrosine-phosphorylation-regulated kinase 1B (Q9Y463 whole entry, looked up): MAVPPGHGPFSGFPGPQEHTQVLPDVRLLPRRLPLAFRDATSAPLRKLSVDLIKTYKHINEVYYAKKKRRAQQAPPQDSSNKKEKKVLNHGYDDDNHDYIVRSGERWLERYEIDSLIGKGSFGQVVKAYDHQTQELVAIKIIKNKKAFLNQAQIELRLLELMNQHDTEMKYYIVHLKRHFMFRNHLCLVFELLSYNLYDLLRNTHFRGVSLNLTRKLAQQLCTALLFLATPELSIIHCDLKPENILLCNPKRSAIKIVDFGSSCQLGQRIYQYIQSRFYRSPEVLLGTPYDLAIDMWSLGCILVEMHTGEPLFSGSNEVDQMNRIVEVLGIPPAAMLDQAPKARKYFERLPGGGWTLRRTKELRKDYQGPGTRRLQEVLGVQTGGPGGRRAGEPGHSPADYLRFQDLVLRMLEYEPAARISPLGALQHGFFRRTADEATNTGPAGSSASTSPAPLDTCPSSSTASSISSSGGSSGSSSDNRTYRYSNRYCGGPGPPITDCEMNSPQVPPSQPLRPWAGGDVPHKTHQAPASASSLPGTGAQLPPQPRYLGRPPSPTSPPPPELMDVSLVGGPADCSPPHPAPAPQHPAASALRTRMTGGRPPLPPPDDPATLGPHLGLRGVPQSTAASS

% of control [1]: 100%
SMILES: CCN(CC)CCCCNc1ncc2cc(-c3cc(OC)cc(OC)c3)c(NC(=O)NC(C)(C)C)nc2n1

SMILES: Nc1cnc(N2CCc3cc(S(=O)(=O)Nc4c(F)cc(Cl)cc4F)cc(N4CCCC4=O)c32)nc1 [TP-020n]
% of control [2]: 100%

SMILES: N#Cc1cccc(-c2c[nH]c3ncnc(N4CCOCC4)c23)c1
% of control [3]: 83%

SMILES: C=CC(=O)Nc1cc(-n2c(=O)ccc3cnc4ccc(-c5ccc(NS(C)(=O)=O)cc5)cc4c32)ccc1C
% of control ([4]; at 1 µM): 79%
% of control ([4]; at 10 µM): 85%

SMILES: COCC(=O)NC/C=C/c1ccc2ncnc(Nc3ccc(Oc4ccc(C)nc4)c(C)c3)c2c1 [CP-724714]
% of control [5]: 79%

% of inhibition [6]: -0.3%
SMILES: CC[C@@H]1[C@H](F)C(=O)N[C@@H]1COc1nccc2cc(C(N)=O)c(OC)cc12 [ZIMLOVISERTIB]

% of inhibition [7]: 62%
SMILES: Cn1cc(Nc2nccc(N3CC4CCC(C3)N4C(=O)[C@@H]3CC3(F)F)n2)cn1
